Test [1] concerns the target T1, PLK4 (h) (Homo sapiens, UniProt O00444).
T1 sequence (O00444 1-970): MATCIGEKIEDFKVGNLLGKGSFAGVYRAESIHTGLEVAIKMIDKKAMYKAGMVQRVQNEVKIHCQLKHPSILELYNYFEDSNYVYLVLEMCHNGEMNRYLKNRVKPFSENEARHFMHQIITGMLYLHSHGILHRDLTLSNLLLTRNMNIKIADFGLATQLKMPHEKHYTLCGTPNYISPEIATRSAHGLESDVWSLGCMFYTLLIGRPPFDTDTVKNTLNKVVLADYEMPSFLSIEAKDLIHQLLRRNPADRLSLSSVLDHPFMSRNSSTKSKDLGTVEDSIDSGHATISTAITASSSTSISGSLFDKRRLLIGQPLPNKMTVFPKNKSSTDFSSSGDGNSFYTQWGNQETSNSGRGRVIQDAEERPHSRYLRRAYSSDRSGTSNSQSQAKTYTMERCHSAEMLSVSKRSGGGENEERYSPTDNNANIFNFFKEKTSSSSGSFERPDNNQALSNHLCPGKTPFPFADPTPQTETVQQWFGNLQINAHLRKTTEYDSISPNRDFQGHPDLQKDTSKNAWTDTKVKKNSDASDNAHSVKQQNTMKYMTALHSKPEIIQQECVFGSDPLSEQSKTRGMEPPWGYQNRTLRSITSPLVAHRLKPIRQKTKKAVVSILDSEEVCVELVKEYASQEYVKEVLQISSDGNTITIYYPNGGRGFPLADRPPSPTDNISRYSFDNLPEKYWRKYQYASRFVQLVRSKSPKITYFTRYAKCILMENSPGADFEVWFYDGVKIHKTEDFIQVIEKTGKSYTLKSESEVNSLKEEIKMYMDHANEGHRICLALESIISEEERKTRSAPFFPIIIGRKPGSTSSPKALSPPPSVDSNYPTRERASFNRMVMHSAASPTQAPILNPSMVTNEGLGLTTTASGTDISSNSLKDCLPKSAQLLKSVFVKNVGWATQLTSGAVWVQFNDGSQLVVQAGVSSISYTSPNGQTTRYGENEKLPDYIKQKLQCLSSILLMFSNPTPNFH
The test is described as follows: PLK-4 human kinase scintillation proximity assay (SPA). It counts as biochemical. Particulars: 1 μM ATP, 60 minutes at r.t., read-out: PLK4 pIC50 (converted). The method, then:
The in vitro inhibition of a panel of kinases was assessed using either the scintillation proximity assay (SPA) as described by Cook, N. D. et al., Advances in Experimental Medicine and Biology (1991), 36; p. 525-528.
In the SPA technology the activity of the kinase of interest is measured using an appropriate biotinylated substrate that is incubated with the aforementioned kinase protein in the presence of (^33P) radiolabeled ATP. (^33P) Phosphorylation of the substrate is subsequently measured through binding of the phosphorylated substrate to streptavidine coated beads that are based on the scintillant poly(vinyl toluene) (PVT-Beads). The scintillation intensity is detected by imaging on Leadseeker.
All kinases are pre-diluted to a 10× working concentration prior to addition into the assay. The composition of the dilution buffer for each kinase is detailed below.
In a final reaction volume of 30 μl, PLK4 (h) (19 μg/ml) is incubated with 50 mM Hepes pH 8.0, 10 mM MgCl2, 50 mM NaCl, 1 mM NaF, 1 mM DTT, 10 μM of peptide Biotin-RPRGQRDSSYYWE-OH, 1 μM ATP and 2 nM [γ-^33P-ATP] (6.0 μCi/ml). After incubation of 60 minutes at r.t., the reaction is stopped by addition of 40 μL of stop solution containing 8.7 mM EDTA, BSA 0.17%, 0.17% Triton X-100, 1.7 mg/ml SPA beads (GE-healthcare). The plate is centrifuged and read for Scintillation imaging on Leadseeker.

Test [2] has as its system HCT-116. The test is described as follows: Cellular proliferation assay (Alamar blue), HCT-116. It is filed as cell-based. Particulars: Homo sapiens; HCT-116 cells; 10% FCS; 72 h with compound; Alamar blue 4 h; read-out: pIC50 HCT-116 (converted). The method, then:
(§1) Cellular proliferation of these compounds was tested on a panel of different cell lines in the presence of 10% FCS serum (37° C. and 5% (v/v) CO2). In a first step these cells were seeded and incubated for 24 hours in the absence of compound. In the second step the cells were incubated for 72 hours with the compounds to be tested for 72 hours. The viable cell number was finally assessed in a standard Alamar blue cell viability assay.
(§2) The viable cell number was assessed by incubation for either 4 h (HCT-116, H1299) 6 h (U87-MG) or 24 h (A2780, PC3, MDA-MB-231) with Alamar blue (Resazurin 9 μg/ml, K-Ferrocyanide 90 μM, K-Ferricyanide 90 μM) and the converted fluorescent product was quantified on a fluorescent plate readed (544 nm/590 nm). Effect of the compounds is calculated as of on control cells.

In test [3] the test system is H1299. The test is described as follows: Cellular proliferation assay (Alamar blue), H1299. It is filed as cell-based. Particulars: Homo sapiens, NCI-H1299, H1299 cells; 10% FCS; 72 h with compound; Alamar blue 4 h; read-out: pIC50 H1299 (converted). How it is done: as §1, §2
Test [4] concerns U87-MG. The test is described as follows: Cellular proliferation assay (Alamar blue), U87-MG. It is filed as cell-based. As to conditions: Homo sapiens, U-87 MG; U87-MG cells; 10% FCS; 72 h with compound; Alamar blue 6 h; read-out: pIC50 U87MG (converted). The method, then: as §1, §2
In test [5] the test system is A2780. In words: Cellular proliferation assay (Alamar blue), A2780. It is filed as cell-based. Particulars: Homo sapiens, A2780, A2780 cells; 10% FCS; 72 h with compound; Alamar blue 24 h; read-out: pIC50 A2780 (converted). How it is done:
as §1, §2
On the technique in general: Alamar Blue is a resazurin reagent that responds to reducing activity.

The test system of test [6] is PC3. The test is described as follows: Cellular proliferation assay (Alamar blue), PC3. It is filed as cell-based. As to conditions: Homo sapiens, PC-3, PC-3 cells; 10% FCS; 72 h with compound; Alamar blue 24 h; read-out: pIC50 PC-3 (converted). The method, then: as §1, §2
For test [7], the system named is MDA-MB-231. The test is described as follows: Cellular proliferation assay (Alamar blue), MDA-MB-231. It counts as cell-based. As to conditions: Homo sapiens, MDA-MB-231, MDA-MB-231 cells; 10% FCS; 72 h with compound; Alamar blue 24 h; read-out: pIC50 MDA/MB231 (converted). How it is done: as §1, §2

Bounds are passed on as bounds.

Take `COc1ccc2cc1OCC(=O)N(C(C)C)CCCN(C)Cc1c[nH]c3ncnc(c13)N2` [Compound 12]: the IC50 in test [1] is 0.0794 µM; in test [2], 7.94 µM; in test [3], > 10 µM; in test [4], 6.31 µM; in test [5], 5.01 µM; in test [6], > 10 µM. Besides, the IC50 in test [7] was > 10 µM.
Take `CN1CCCN(C)C(=O)COc2cc(ccc2NC(=O)NC2CCCCC2)Nc2ncnc3[nH]cc(c23)C1` [Compound 13]: the IC50 is 0.0251 µM in test [1]; 2 µM in test [2]; 3.98 µM in test [3]; 3.98 µM in test [4]; 1 µM in test [5]; > 10 µM in test [6]. Also, the IC50 in test [7] is > 10 µM.
As to `CN1CCCN(C)C(=O)COc2cc(ccc2Cl)Nc2ncnc3[nH]cc(c23)C1` [Compound 14], the IC50 in test [1] was 0.0501 µM; in test [2], 0.631 µM; in test [3], > 10 µM; in test [4], 0.794 µM; in test [5] it was 3.98 µM; in test [6] it was > 10 µM. Also, the IC50 in test [7] is > 10 µM.
Turning to `COc1ccc(NC(=O)Nc2ccc3cc2OCC(=O)N(C)CCCN(C)Cc2c[nH]c4ncnc(c24)N3)cc1` [Compound 15], the IC50 in test [1] was 0.0251 µM; in test [2], 0.794 µM; in test [3], > 10 µM; in test [4], 2 µM; in test [5] it was 0.794 µM; in test [6], > 10 µM. Also, the IC50 in test [7] is > 10 µM.
For the molecule `COc1ccc2cc1OCCCCC(=O)N(C)CCCN(C)Cc1c[nH]c3ncnc(c13)N2` [Compound 16], the IC50 in test [1] is 0.126 µM; in test [2], > 10 µM; in test [3], > 10 µM; in test [4] it was > 10 µM; in test [5] it was > 10 µM; in test [6], > 10 µM. Besides, the IC50 in test [7] is > 10 µM.
As to `COc1ccc2cc1OCCCC(=O)N(C)CCCN(C)Cc1c[nH]c3ncnc(c13)N2` [Compound 17], the IC50 in test [1] was 0.251 µM; in test [2], > 10 µM; in test [3], > 10 µM; in test [4] it was > 10 µM; in test [5], > 10 µM; in test [6], > 10 µM. Further, the IC50 in test [7] is > 10 µM.
As for `COc1ccc2cc1OCCCCCC(=O)N(C)CCCN(C)Cc1c[nH]c3ncnc(c13)N2` [Compound 18], the IC50 is 0.398 µM in test [1]; > 10 µM in test [2]; > 10 µM in test [3]; > 10 µM in test [4]; > 10 µM in test [5]; > 10 µM in test [6]. Besides, in test [7], the IC50 was > 10 µM.
With `CN1CCCN(C)C(=O)CCCCCOc2cc(ccc2Cl)Nc2ncnc3[nH]cc(c23)C1` [Compound 19], the IC50 in test [1] was 0.316 µM; in test [2] it was > 10 µM; in test [3] it was > 10 µM; in test [4], > 10 µM; in test [5], > 10 µM; in test [6], > 10 µM. Besides, in test [7], the IC50 is > 10 µM.
`CN1CCN(C)C(=O)CCc2cccc(c2)Nc2ncnc3[nH]cc(c23)C1` [Compound 20]: the IC50 is 0.631 µM in test [1]; 7.94 µM in test [2]; 10 µM in test [3]; > 10 µM in test [4]; > 10 µM in test [5]; > 10 µM in test [6]. In test [7], the IC50 is > 10 µM.
Take `CN1CCCN(C)C(=O)CCc2cccc(c2)Nc2ncnc3[nH]cc(c23)C1` [Compound 21]: the IC50 in test [1] is 0.501 µM; in test [2] it was 1.58 µM; in test [3], 2 µM; in test [4] it was 2 µM; in test [5] it was 2 µM; in test [6] it was 3.98 µM. Further, the IC50 in test [7] was 5.01 µM.
As for `COc1ccc2cc1OCCNC(=O)CN(C)Cc1c[nH]c3ncnc(c13)N2` [Compound 22], the IC50 in test [1] was 1.26 µM; in test [2], 2 µM; in test [3], 3.16 µM; in test [4], 2.51 µM; in test [5] it was 2 µM; in test [6], 6.31 µM. The IC50 in test [7] is 10 µM.
In the case of `CN1CC(=O)NCCOc2cccc(c2)Nc2ncnc3[nH]cc(c23)C1` [Compound 23], the IC50 in test [1] is 1.58 µM; in test [2], 1.26 µM; in test [3], 1 µM; in test [4], 1.58 µM; in test [5] it was 1 µM; in test [6], 3.16 µM. Moreover, the IC50 in test [7] is 5.01 µM.
On to `CN1CCCN(C)C(=O)Cc2cccc(c2)Nc2ncnc3[nH]cc(c23)C1` [Compound 24], for which the IC50 in test [1] was 0.398 µM; in test [2] it was 3.98 µM; in test [3], > 10 µM; in test [4], 10 µM; in test [5] it was 5.01 µM; in test [6] it was 10 µM. Also, in test [7], the IC50 is > 10 µM.
Consider `COc1ccc2cc1OCC(=O)N1CCC[C@H]1CN(C)CCCc1c[nH]c3ncnc(c13)N2` [Compound 27], for which the IC50 in test [1] was 6.31 µM; in test [2], > 10 µM; in test [3] it was > 10 µM; in test [4] it was > 10 µM; in test [5], > 10 µM; in test [6], > 10 µM. In test [7], the IC50 was > 10 µM.
For the molecule `COc1ccc2cc1OCC(=O)N[C@@H](C)CN(C)CCCc1c[nH]c3ncnc(c13)N2` [Compound 28], the IC50 in test [1], in test [2], in test [3], in test [4], in test [5] and in test [6] was > 10 µM each time. Further, the IC50 in test [7] is > 10 µM.
Take `COc1ccc2cc1OCC(=O)N1CCCC(CN(C)CCCc3c[nH]c4ncnc(c34)N2)C1` (stereo not shown) [Compound 29]: the IC50 in test [1], in test [2], in test [3], in test [4], in test [5] and in test [6] was > 10 µM throughout. In addition, in test [7], the IC50 was > 10 µM.

For the origin of these results see patent publication US8318731B2, “Pyrrolopyrimidines” (Janssen Pharmaceutica NV, priority 2007, dated 2012).
